Measured values reported in ChEMBL document CHEMBL5241131, “2-Anilino-4-(1-methyl-1H-pyrazol-4-yl)pyrimidine-derived CDK2 inhibitors as anticancer agents: Design, synthesis & evaluation” (Bioorg Med Chem, 2023).
Calls of active or inactive are those of the source. The calls are words filed in the database; no cut-off is given here.

molecular target: CDK9/cyclin T1 (Homo sapiens) (UniProt O60563+P50750); assay: Inhibition of CDK9/cyclin T1 (unknown origin) at 1 uM incubated for 30 to 60 mins presence of dithiothreitol by Cheng-Prusoff equation analysis relative to control; format: protein-complex assay; details: time 30-60 min

| SMILES | inhibition [%] |
| --- | --- |
| Cn1cc(-c2nc(NC3CCN(S(C)(=O)=O)CC3)ncc2Cl)cn1 | 39 |
| Cc1nn(C)cc1-c1nc(NC2CCN(S(C)(=O)=O)CC2)ncc1Cl | 27 |

test system: HCT-116; assay: Induction of cell cycle arrest in human HCT-116 cells assessed as accumulation of cells at S phase at 1 uM incubated for 24 hrs by propidium iodide staining based flow cytometry (reference value: 18.01%); format: functional; details: not given

| SMILES | Activity [%] |
| --- | --- |
| CNc1nc(C)c(-c2nc(Nc3cccc(S(N)(=O)=O)c3)ncc2F)s1 [ASNUCICLIB] | 16.81 |

molecular target: T1, Cyclin-dependent kinase 2/cyclin E (Homo sapiens, UniProt P24941); assay: Inhibition of CDK2/cyclin E (unknown origin) assessed as inhibition constant; format: protein-complex assay; details: not given

| SMILES | Ki [nM] |
| --- | --- |
| CC[C@@H](Nc1nc(NCc2cnc(C)cc2C)c2ncn(C(C)C)c2n1)[C@H](C)O | 5 |

test system: HCT-116; assay: Induction of apoptosis in human HCT-116 cells assessed as increase in cleaved PARP level at 1 uM incubated for 24 hrs by Western blot analysis; format: functional, cell-based; details: not given

| SMILES | Activity |
| --- | --- |
| CNc1nc(C)c(-c2nc(Nc3cccc(S(N)(=O)=O)c3)ncc2F)s1 [ASNUCICLIB] | Active |

test system: A2780; assay: Antiproliferative activity against human A2780 cells assessed as inhibition of cell growth at 1 uM incubated for 72 hrs by MTT assay; format: functional; set-up: scale not given: the % may be the effect or the level left; details: not given

| SMILES | Activity [%] |
| --- | --- |
| Cn1cc(-c2nc(NC3CCN(S(C)(=O)=O)CC3)ncc2Cl)cn1 | 45 |
| Cc1nn(C)cc1-c1nc(NC2CCN(S(C)(=O)=O)CC2)ncc1Cl | 20 |
| Cn1cc(-c2nc(Nc3ccc(S(C)(=O)=O)cc3)ncc2Cl)cn1 | 63 |

molecular target: T2, Cyclin-dependent kinase 1/cyclin B (Homo sapiens, UniProt P06493); assay: Inhibition of CDK1/Cyclin B (unknown origin) assessed as inhibition constant incubated for 30 to 60 mins presence of dithiothreitol by Cheng-Prusoff equation analysis; format: protein-complex assay; details: not given

| SMILES | Ki [nM] |
| --- | --- |
| Cn1cc(-c2nc(NC3CCN(S(C)(=O)=O)CC3)ncc2Cl)cn1 | 26 |
| Cc1nn(C)cc1-c1nc(NC2CCN(S(C)(=O)=O)CC2)ncc1Cl | 12 |
| Cn1cc(-c2nc(Nc3ccc(S(C)(=O)=O)cc3)ncc2Cl)cn1 | 6 |

molecular target: CDK9/cyclin T1 (Homo sapiens, UniProt P50750); assay: Inhibition of CDK9/cyclin T1 (unknown origin) assessed as inhibition constant incubated for 30 to 60 mins presence of dithiothreitol by Cheng-Prusoff equation analysis; format: protein-complex assay; details: not given
Sequence (O60563 whole entry): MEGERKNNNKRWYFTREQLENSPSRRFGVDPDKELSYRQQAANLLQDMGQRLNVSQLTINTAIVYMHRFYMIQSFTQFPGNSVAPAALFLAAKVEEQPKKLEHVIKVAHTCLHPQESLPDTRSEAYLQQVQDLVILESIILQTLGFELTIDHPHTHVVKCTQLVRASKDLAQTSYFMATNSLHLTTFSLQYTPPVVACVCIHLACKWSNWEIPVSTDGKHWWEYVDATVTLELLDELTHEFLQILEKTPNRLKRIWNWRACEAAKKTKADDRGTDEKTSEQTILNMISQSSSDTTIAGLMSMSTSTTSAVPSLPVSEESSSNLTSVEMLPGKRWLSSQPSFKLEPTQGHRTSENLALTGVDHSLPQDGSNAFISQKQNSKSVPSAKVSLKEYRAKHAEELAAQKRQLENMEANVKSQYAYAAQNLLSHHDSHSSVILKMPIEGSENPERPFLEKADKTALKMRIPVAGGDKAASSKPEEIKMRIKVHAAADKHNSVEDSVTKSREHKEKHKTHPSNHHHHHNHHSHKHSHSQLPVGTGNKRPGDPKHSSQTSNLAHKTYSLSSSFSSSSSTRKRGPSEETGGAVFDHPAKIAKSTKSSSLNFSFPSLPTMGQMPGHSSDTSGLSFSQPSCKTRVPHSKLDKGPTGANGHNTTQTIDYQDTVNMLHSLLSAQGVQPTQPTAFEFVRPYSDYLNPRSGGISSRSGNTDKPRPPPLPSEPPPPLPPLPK
Sequence (P50750 whole entry): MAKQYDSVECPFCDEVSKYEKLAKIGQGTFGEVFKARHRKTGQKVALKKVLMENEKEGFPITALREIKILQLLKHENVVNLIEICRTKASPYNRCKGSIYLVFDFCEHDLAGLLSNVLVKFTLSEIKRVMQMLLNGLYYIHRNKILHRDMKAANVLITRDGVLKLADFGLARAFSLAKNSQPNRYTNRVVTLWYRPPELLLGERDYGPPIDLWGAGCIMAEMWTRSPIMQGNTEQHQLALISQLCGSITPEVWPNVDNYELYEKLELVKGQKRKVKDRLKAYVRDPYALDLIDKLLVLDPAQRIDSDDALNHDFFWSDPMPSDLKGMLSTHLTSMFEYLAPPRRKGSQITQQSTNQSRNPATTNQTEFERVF

| SMILES | Ki [nM] |
| --- | --- |
| Cn1cc(-c2nc(Nc3ccc(S(C)(=O)=O)cc3)ncc2Cl)cn1 | 229 |

test system: HCT-116; assay: Induction of apoptosis in human HCT-116 cells assessed as necrotic cells at 1 uM incubated for 72 hrs by AnnexinV-FITC/propidium iodide staining based flow cytometry (Rvb =0.71%); format: functional; details: not given

| SMILES | Activity [%] |
| --- | --- |
| CNc1nc(C)c(-c2nc(Nc3cccc(S(N)(=O)=O)c3)ncc2F)s1 [ASNUCICLIB] | 0.95 |

molecular target: T2, Cyclin-dependent kinase 1/cyclin B; assay: Inhibition of CDK1/Cyclin B (unknown origin) assessed as inhibition constant; format: protein-complex assay; details: not given

| SMILES | Ki [nM] |
| --- | --- |
| CC[C@@H](Nc1nc(NCc2cnc(C)cc2C)c2ncn(C(C)C)c2n1)[C@H](C)O | 578 |

test system: HCT-116; assay: Induction of apoptosis in human HCT-116 cells assessed as early apoptotic cells at 1 uM incubated for 72 hrs by AnnexinV-FITC/propidium iodide staining based flow cytometry (reference value: 2.95%); format: functional; details: not given

| SMILES | Activity [%] |
| --- | --- |
| CNc1nc(C)c(-c2nc(Nc3cccc(S(N)(=O)=O)c3)ncc2F)s1 [ASNUCICLIB] | 15.19 |

test system: HCT-116; assay: Induction of cell cycle arrest in human HCT-116 cells assessed as accumulation of cells at G1 phase at 1 uM incubated for 24 hrs by propidium iodide staining based flow cytometry (reference value: 51.33%); format: functional; details: not given

| SMILES | Activity [%] |
| --- | --- |
| CNc1nc(C)c(-c2nc(Nc3cccc(S(N)(=O)=O)c3)ncc2F)s1 [ASNUCICLIB] | 28.88 |

molecular target: T1, Cyclin-dependent kinase 2/cyclin E; assay: Inhibition of CDK2/cyclin E (unknown origin) assessed as inhibition constant incubated for 30 to 60 mins presence of dithiothreitol by Cheng-Prusoff equation analysis; format: protein-complex assay; details: not given

| SMILES | Ki [nM] |
| --- | --- |
| Cn1cc(-c2nc(NC3CCN(S(C)(=O)=O)CC3)ncc2Cl)cn1 | 8 |
| Cc1nn(C)cc1-c1nc(NC2CCN(S(C)(=O)=O)CC2)ncc1Cl | 16 |
| Cn1cc(-c2nc(Nc3ccc(S(C)(=O)=O)cc3)ncc2Cl)cn1 | 7 |

test system: HCT-116; assay: Induction of cell cycle arrest in human HCT-116 cells assessed as accumulation of cells at G2/M phase at 1 uM incubated for 24 hrs by propidium iodide staining based flow cytometry (reference value: 28.37%); format: functional; details: not given

| SMILES | Activity [%] |
| --- | --- |
| CNc1nc(C)c(-c2nc(Nc3cccc(S(N)(=O)=O)c3)ncc2F)s1 [ASNUCICLIB] | 53.11 |

test system: HCT-116; assay: Induction of apoptosis in human HCT-116 cells assessed as viable cells at 1 uM incubated for 72 hrs by AnnexinV-FITC/propidium iodide staining based flow cytometry (reference value: 93.43%); format: functional; details: read-out: Activity

| SMILES | viability at 1 µM [%] |
| --- | --- |
| CNc1nc(C)c(-c2nc(Nc3cccc(S(N)(=O)=O)c3)ncc2F)s1 [ASNUCICLIB] | 77 |

test system: HCT-116; assay: Induction of cell cycle arrest in human HCT-116 cells assessed as accumulation of cells at sub G1 phase at 1 uM incubated for 24 hrs by propidium iodide staining based flow cytometry (reference value: 0.24%); format: functional; details: not given

| SMILES | Activity [%] |
| --- | --- |
| CNc1nc(C)c(-c2nc(Nc3cccc(S(N)(=O)=O)c3)ncc2F)s1 [ASNUCICLIB] | 1.21 |

test system: HCT-116; assay: Induction of apoptosis in human HCT-116 cells assessed as late apoptotic cells at 1 uM incubated for 72 hrs by AnnexinV-FITC/propidium iodide staining based flow cytometry (reference value: 2.91%); format: functional; details: not given

| SMILES | Activity [%] |
| --- | --- |
| CNc1nc(C)c(-c2nc(Nc3cccc(S(N)(=O)=O)c3)ncc2F)s1 [ASNUCICLIB] | 6.85 |

molecular target: CDK9/Cyclin T (Homo sapiens, UniProt P50750); assay: Inhibition of CDK9/cyclin T (unknown origin) assessed as inhibition constant; format: protein-complex assay; details: not given
Sequence (O60563 whole entry): as the sequence (O60563 whole entry) above
Sequence (P50750 whole entry): as the sequence (P50750 whole entry) above
Sequence (O60583 whole entry, further chain): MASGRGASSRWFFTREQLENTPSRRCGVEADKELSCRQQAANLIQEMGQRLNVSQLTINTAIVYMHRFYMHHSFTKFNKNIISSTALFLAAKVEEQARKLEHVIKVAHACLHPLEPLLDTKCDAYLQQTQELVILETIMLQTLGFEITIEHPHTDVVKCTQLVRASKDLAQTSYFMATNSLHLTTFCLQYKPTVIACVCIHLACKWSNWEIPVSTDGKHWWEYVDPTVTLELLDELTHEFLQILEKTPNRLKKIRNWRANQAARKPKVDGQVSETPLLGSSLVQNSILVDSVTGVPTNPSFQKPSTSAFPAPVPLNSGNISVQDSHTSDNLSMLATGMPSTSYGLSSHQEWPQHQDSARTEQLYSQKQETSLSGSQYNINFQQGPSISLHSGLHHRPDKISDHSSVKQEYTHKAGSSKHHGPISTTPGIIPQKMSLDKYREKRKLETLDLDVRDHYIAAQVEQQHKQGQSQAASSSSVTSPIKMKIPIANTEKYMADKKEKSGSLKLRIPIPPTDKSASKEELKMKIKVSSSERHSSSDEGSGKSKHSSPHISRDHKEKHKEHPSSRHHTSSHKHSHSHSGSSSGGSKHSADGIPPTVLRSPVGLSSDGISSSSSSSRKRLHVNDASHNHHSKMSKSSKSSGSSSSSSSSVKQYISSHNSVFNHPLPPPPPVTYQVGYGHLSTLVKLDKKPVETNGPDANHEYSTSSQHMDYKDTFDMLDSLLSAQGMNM

| SMILES | Ki [nM] |
| --- | --- |
| C[C@@]1(O)CCC[C@H]1n1c(=O)c(C(F)F)cc2cnc(NC3CCN(S(C)(=O)=O)CC3)nc21 [EBVACICLIB] | < 19 |

molecular target: Cyclin-dependent kinase 5/CDK5 activator 1 (Homo sapiens, UniProt Q00535); assay: Inhibition of CDK5/p25 (unknown origin) assessed as inhibition constant incubated for 30 to 60 mins presence of dithiothreitol by Cheng-Prusoff equation analysis; format: protein-complex assay; details: not given
Sequence (Q00535 whole entry): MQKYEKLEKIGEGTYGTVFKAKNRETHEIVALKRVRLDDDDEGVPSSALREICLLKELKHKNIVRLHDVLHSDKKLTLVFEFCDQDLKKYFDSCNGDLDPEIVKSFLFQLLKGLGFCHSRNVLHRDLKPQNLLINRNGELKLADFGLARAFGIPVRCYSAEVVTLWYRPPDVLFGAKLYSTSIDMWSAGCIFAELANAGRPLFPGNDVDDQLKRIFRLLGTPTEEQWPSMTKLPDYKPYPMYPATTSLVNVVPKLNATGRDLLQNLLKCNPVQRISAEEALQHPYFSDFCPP
Sequence (Q15078 whole entry, further chain): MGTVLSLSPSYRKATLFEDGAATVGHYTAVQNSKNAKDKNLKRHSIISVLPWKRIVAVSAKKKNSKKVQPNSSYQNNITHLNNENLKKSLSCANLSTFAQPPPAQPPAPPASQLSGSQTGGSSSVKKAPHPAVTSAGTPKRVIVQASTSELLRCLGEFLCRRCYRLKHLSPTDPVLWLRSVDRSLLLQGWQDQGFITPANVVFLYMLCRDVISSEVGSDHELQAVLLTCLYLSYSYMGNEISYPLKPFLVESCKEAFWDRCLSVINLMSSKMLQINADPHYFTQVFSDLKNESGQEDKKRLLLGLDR

| SMILES | Ki [nM] |
| --- | --- |
| Cn1cc(-c2nc(NC3CCN(S(C)(=O)=O)CC3)ncc2Cl)cn1 | 9 |
| Cc1nn(C)cc1-c1nc(NC2CCN(S(C)(=O)=O)CC2)ncc1Cl | 2 |
| Cn1cc(-c2nc(Nc3ccc(S(C)(=O)=O)cc3)ncc2Cl)cn1 | 36 |
